Key:
wild type PKR [1] = molecular target: T1, wild type PKR (Homo sapiens, UniProt P30613); experiment: Cell based ATP assay in purified red blood cells; design: endogenous in cells; host or cells: purified red blood cells from blood of healthy volunteers; details: RBCs, overnight at 37° C., ATP levels by Cell-Titer-Glo
Procedure: Example 16. Red Blood Cell (RBC) Purification
Fresh blood drawn from healthy volunteers into K2EDTA tubes was collected. Whole blood was pelleted by spinning at 500 g for 10 minutes. Cut transfusion bag port off of Purecell leukocyte reduction neofilter (Fisher NCO267633) one (1) inch above filter. Attach a 10 ml syringe barrel to the remaining cut tubing attached to neofilter. The plasma layer was removed from the pellet of the whole blood and the pellet was resuspended in 2× volume of phosphate buffered saline (PBS). Transfer 9 ml re-suspended blood cell pellet to prepared 10 ml syringe that is attached to the neofilter. Allow whole blood to gravity flow through filter until all fluid runs through upper tubing into filter disc. Add plunger to the syringe, remove syringe from clamp and invert the filter, then plunge air through the syringe filter system. Using a new 5 ml syringe, remove filtered RBCs from the bag by the syringe port and transfer purified RBCs to a 5 ml snap cap tube that has been incubated on ice. Spin 5 ml snap cap tube at 500 g for 10 minutes at 15 C, aspirate supernatant and resuspend in AGAM (1×PBS, 1% glucose, 170 mg/L adenine, 5.25 g/L mannitol) at a density of 4×10^9 cells/mL.
Example 17. Cell Based ATP Assay
For cell based ATP assays, the compound as described herein was prepared in 100% DMSO as a 10 mM stock. Serial dilutions (1:4) were performed in 96-well V-bottom storage plate and then added 1:100 to 96-well V-bottom plates containing AGAM. RBCs were diluted in AGAM media to a density of 1×10^7 cells/mL before added 90 μL/well to black clear bottom assay plates (final compound concentration at 0.1% DMSO concentration). Assay plates were sealed using aluminum foil seals and incubated overnight at 37° C. in a humidified chamber. ATP levels were read out using Cell-Titer-Glo (Promega).

wild type PKR [2] = molecular target: T1, wild type PKR; experiment: PKR mutant assay (AC50), wild type PKR; assay type: biochemical; details: wild type PKR enzyme; read-out: PKR WT AC50
Procedure: (§1) Example 11. PKR Mutant Assay
(§2) PKR or PKR mutant enzyme solution was diluted into a reaction mix, which contains 1× buffer (100 mM KCl, 50 mM Tris pH 7.5, 5 mM MgCl2) as well as PEP (cont depends on enzyme), 180 μM NADH, 0.5 units LDH, 1 mM DTT, 0.03% BSA; final assay concentrations after 1.11 fold dilution are indicated.
(§3) 2 μL of test compound was added into wells first, and then 180 μL reaction mix was added.
(§4) Reactions mixture with test compound was assembled except for ADP, and plates were stored for 60 minutes at room temperature.
(§5) 20 uL ADP was added to start reaction at room temperature and reaction progress was measured as changes in absorbance at 340 nm wavelength at room temperature.
(§6) Test Compound Preparation:
(§7) Test compound stock was made at 100× concentration in 100% DMSO (10 mM)
(§8) 1 to 3 dilutions were made for 11 points (i.e. 50 μl of first concentration added to 100 μl 100% DMSO to yield 3.33 mM, 50 μl of this added to 100 μl DMSO to yield 1.11 mM, and so forth) • 1 to 100 dilution into assay (2 μl in 200 μl) yielded starting concentration of 100 μM, decreasing 3 fold for 11 points.
(§9) Assay Buffer: 100 mM KCl, 50 mM Tris 7.5, 5 mM MgCl2, 1 ruM DTT, 0.03% BSA
(§10) Reaction Mixture: PKR mutant enzyme: 40-400 ng/well; ADP: 0.2-1.65 mM; PEP: 0.1-0.5 mM; NADH:180 μM; LDH: 0.5 units (Sigma #59023); DTT: 1 mM; BSA: 0.03%.

PKR R510Q = PKR R510Q (Homo sapiens, UniProt P30613, R510Q); experiment: PKR mutant assay (AC50), PKR R510Q; assay type: biochemical; details: PKR R510Q mutant enzyme; read-out: PK R510Q AC50
Chain of PKR R510Q (P30613 whole entry R510Q): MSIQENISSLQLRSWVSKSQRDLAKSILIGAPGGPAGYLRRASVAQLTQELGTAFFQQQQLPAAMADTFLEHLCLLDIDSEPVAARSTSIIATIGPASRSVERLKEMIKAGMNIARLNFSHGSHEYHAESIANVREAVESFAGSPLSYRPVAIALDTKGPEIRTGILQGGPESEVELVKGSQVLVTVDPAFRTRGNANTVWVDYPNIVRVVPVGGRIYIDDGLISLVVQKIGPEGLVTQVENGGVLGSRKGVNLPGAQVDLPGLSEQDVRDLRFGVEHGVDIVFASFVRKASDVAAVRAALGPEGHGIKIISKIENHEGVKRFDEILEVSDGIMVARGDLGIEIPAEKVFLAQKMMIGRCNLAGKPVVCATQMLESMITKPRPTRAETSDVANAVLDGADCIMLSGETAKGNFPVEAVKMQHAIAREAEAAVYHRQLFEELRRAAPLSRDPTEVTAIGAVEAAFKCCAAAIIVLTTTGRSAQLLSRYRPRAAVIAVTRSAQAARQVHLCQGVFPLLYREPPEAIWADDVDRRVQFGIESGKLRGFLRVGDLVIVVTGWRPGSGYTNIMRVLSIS
Procedure: as §1, §2, §3, §4, §5, §6, §7, §8, §9, §10

PKR K410E = PKR K410E (Homo sapiens, UniProt P30613, K410E); experiment: PKR mutant assay (AC50), PKR K410E; assay type: biochemical; details: PKR K410E mutant enzyme
Chain of PKR K410E (P30613 whole entry K410E): as the sequence (P30613 whole entry R510Q) above, with K410E, Q510R counted along it
Procedure: as §1, §2, §3, §4, §5, §6, §7, §8, §9, §10

T1 sequence (P30613 whole entry): as the sequence (P30613 whole entry R510Q) above, with Q510R counted along it

Row | SMILES | AC50 (wild type PKR [1]) [nM] | AC50 (wild type PKR [2]) [nM] | AC50 (PKR R510Q) [nM] | AC50 (PKR K410E) [nM]
1 | Cn1ccc(Cn2ncc3c4sc(Cc5cc[nH]n5)nc4n(C)c3c2=O)n1 | ≤ 1000 | < 300 | < 300 | < 300
2 | Cn1c2nc(Cc3cc[nH]n3)sc2c2cnn(Cc3cscn3)c(=O)c21 | ≤ 1000 | < 300 | < 300 | < 300
3 | Cn1c2nc(Cc3cc[nH]n3)sc2c2cnn(Cc3cnsc3)c(=O)c21 | ≤ 1000 | < 300 | < 300 | < 300
4 | Cn1c2nc(Cc3cc[nH]n3)sc2c2cnn(Cc3ncsc3C#N)c(=O)c21 | ≤ 1000 | < 300 | < 300 | < 300
5 | Cn1cc(Cl)c(Cn2ncc3c4sc(Cc5cc[nH]n5)nc4n(C)c3c2=O)n1 | ≤ 1000 | < 300 | < 300 | < 300
6 | Cn1c2nc(Cc3ccccn3)sc2c2cnn(Cc3n[nH]cc3F)c(=O)c21 | ≤ 1000 | < 300 | < 300 | < 300
7 | Cn1c2nc(Cc3ccccn3)sc2c2cnn(Cc3n[nH]cc3Cl)c(=O)c21 | ≤ 1000 | < 300 | < 300 | < 300
8 | Cn1cc(C#N)c(Cn2ncc3c4sc(Cc5cc[nH]n5)nc4n(C)c3c2=O)n1 | ≤ 1000 | < 300 | < 300 | < 300
9 | Cn1cc(C(N)=O)c(Cn2ncc3c4sc(Cc5cc[nH]n5)nc4n(C)c3c2=O)n1 | > 1000 | > 800 | > 800 | 301 to 800
10 | Cn1cc(N)c(Cn2ncc3c4sc(Cc5cc[nH]n5)nc4n(C)c3c2=O)n1 | ≤ 1000 | < 300 | < 300 | < 300
11 | Cn1c2nc(Cc3cc[nH]n3)sc2c2cnn(Cc3n[nH]cc3C#N)c(=O)c21 | ≤ 1000 | < 300 | < 300 | < 300
12 | Cn1c2nc(Cc3cc[nH]n3)sc2c2cnn(Cc3n[nH]cc3C(N)=O)c(=O)c21 | ≤ 1000 | < 300 | < 300 | < 300
13 | Cn1cc(C(F)(F)F)c(Cn2ncc3c4sc(Cc5cc[nH]n5)nc4n(C)c3c2=O)n1 | ≤ 1000 | < 300 | < 300 | < 300
14 | COc1cn(C)nc1Cn1ncc2c3sc(Cc4cc[nH]n4)nc3n(C)c2c1=O | ≤ 1000 | < 300 | < 300 | < 300
15 | Cc1c[nH]nc1Cn1ncc2c3sc(Cc4n[nH]cc4F)nc3n(C)c2c1=O | ≤ 1000 | < 300 | < 300 | < 300
16 | Cn1c2nc(Cc3n[nH]cc3F)sc2c2cnn(Cc3cscn3)c(=O)c21 | ≤ 1000 | < 300 | < 300 | < 300
17 | Cc1cn(C)nc1Cn1ncc2c3sc(Cc4cc[nH]n4)nc3n(C)c2c1=O | ≤ 1000 | < 300 | < 300 | < 300
18 | Cn1c2nc(Cc3n[nH]cc3F)sc2c2cnn(Cc3n[nH]cc3N)c(=O)c21 | ≤ 1000 | < 300 | < 300 | < 300
19 | Cn1cc(CO)c(Cn2ncc3c4sc(Cc5cc[nH]n5)nc4n(C)c3c2=O)n1 | ≤ 1000 | < 300 | < 300 | < 300
20 | Cn1c2nc(Cc3cc[nH]n3)sc2c2cnn(Cc3ncoc3C(N)=O)c(=O)c21 | ≤ 1000 | < 300 | < 300 | < 300
21 | Cn1c2nc(Cc3cc[nH]n3)sc2c2cnn(Cc3ccc(C#N)cn3)c(=O)c21 | ≤ 1000 | 301 to 800 | < 300 | < 300

From patent publication US11040036B2, “Pyruvate kinase activators for use in treating blood disorders” (Agios Pharmaceuticals, Inc., priority 2017, dated 2021)
